Reference: publication PMC10151467, “Elucidating the origins of phycocyanobilin biosynthesis and phycobiliproteins” (Proceedings of the National Academy of Sciences of the …, 2023)

Legend:
Cph1 (N514 truncation) = target: T1, Cph1 (N514 truncation) (Synechocystis sp. PCC 6803, UniProt Q55168); assay: absorption, photoconversion, acid denaturation; format: binding; conditions: covalent adduct
T1 construct: N514 truncation construct sufficient for photoconversion, His-tagged, E. coli
T1 sequence (Q55168 1-514): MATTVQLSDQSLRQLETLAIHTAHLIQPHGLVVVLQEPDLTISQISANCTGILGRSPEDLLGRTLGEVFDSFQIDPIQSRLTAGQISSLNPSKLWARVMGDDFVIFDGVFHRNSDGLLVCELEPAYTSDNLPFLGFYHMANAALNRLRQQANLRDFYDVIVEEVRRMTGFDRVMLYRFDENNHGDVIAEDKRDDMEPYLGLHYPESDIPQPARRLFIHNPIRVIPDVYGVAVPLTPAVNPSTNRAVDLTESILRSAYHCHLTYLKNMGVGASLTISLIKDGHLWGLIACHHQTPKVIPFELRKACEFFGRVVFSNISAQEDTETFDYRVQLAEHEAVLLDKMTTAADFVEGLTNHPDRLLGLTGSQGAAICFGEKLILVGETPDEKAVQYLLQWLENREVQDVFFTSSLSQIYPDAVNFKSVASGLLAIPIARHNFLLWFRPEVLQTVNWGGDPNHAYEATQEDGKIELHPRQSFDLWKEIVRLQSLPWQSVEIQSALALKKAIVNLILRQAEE

POZ53552 (BBAG-1) [1] = target: T2, POZ53552 (BBAG-1) (Methylovulum psychrotolerans, UniProt A0A2S5CS40); assay: absorption of purified holoprotein, acid denaturation; format: binding; conditions: covalent (CXRD motif)
T2 construct: gene AADEFJLK_00580; synthetic gene in pET28 (pET28-RcaE backbone); coexpressed in E. coli with bilin biosynthesis plasmid; CXRD motif
T2 sequence (A0A2S5CS40 1-198): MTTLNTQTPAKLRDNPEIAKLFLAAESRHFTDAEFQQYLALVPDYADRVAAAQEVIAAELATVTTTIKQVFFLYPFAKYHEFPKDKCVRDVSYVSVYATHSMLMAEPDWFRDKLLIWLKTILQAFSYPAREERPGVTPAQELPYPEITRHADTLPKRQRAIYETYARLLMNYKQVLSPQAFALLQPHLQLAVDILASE

POZ53557 (pre-1 FDBR) = target: T3, POZ53557 (pre-1 FDBR) (Methylovulum psychrotolerans, UniProt A0A2S5CS30); assay: coexpression in E. coli with HO and Cph1 reporter; bilin identified on reporter; format: cell-based; conditions: E. coli coexpression with HO POZ53545; inefficient reduction to PΦB
T3 construct: gene pcyA; replaces alt-PcyA in plasmid Spam-545/alt557, coexpressed in E. coli with HO and Cph1 reporter; not purified
T3 sequence (A0A2S5CS30 1-228): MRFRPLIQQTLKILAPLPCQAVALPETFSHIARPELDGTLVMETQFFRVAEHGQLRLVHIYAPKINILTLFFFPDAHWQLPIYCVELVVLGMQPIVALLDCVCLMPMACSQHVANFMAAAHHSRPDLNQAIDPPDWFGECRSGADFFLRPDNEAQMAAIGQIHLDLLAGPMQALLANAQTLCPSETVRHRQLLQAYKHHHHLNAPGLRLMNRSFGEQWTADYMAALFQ

POZ53552 (BBAG-1) [2] = target: T2, POZ53552 (BBAG-1); assay: absorption of purified holoprotein; format: binding; conditions: covalent (CXRD motif); coexpressed with HO POZ53545 alone (Spam-545xc); poor chromophorylation
CAP_1521 (BBAG-2) = target: T4, CAP_1521 (BBAG-2) (Chondromyces apiculatus, UniProt A0A017TC46); assay: absorption of purified holoprotein, acid denaturation, CD; format: binding; conditions: covalent adduct; coexpressed in E. coli with HO POZ53545 and CAP_1520; 25 °C
T4 construct: coexpressed in E. coli with bilin biosynthesis plasmid
T4 sequence (A0A017TC46 1-259): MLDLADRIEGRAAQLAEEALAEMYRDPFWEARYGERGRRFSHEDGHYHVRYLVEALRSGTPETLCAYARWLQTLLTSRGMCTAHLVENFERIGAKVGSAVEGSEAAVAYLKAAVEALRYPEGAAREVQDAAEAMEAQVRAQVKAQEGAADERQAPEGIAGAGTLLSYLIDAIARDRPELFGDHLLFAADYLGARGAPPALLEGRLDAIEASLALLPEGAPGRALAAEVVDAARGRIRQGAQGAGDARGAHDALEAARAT

SMILES: C=CC1=C(C)C(=CC2=NC(=Cc3[nH]c(C=C4NC(=O)C(C)C4=CC)c(C)c3CCC(=O)O)C(CCC(=O)O)=C2C)NC1=O (stereo not shown) [PΦB]
- absorption, photoconversion, acid denaturation (Cph1 (N514 truncation); coexpressed with Spam-545/CAP): confirmed that this preparation contained a PΦB chromophore
- absorption of purified holoprotein, acid denaturation (POZ53552 (BBAG-1) [1]; coexpressed with Spam-545/CAP, poor chromophorylation): BBAG-1 POZ53552 incorporated PΦB when coexpressed with Spam-545/CAP

SMILES: C=CC1=C(C)C(CC2=NC(=Cc3[nH]c(C=C4NC(=O)C(C)C4=CC)c(C)c3CCC(=O)O)C(CCC(=O)O)=C2C)NC1=O (stereo not shown) [PEB]
- absorption, photoconversion, acid denaturation (Cph1 (N514 truncation); coexpressed with Spam-545/8304, photoinactive population of mixed preparation): The photoinactive pink population was consistent with the known properties of the PEB adduct
- absorption of purified holoprotein, acid denaturation (POZ53552 (BBAG-1) [1]; coexpressed with Spam-545/8304, mixture of PΦB and PEB adducts): Denaturation analysis confirmed that these peaks reflected a mixture of PΦB and PEB

SMILES: C=CC1=C(C)C(=Cc2[nH]c(C=C3N=C(C=C4NC(=O)C(C)=C4C=C)C(C)=C3CCC(=O)O)c(CCC(=O)O)c2C)NC1=O [BV]
- coexpression in E. coli with HO and Cph1 reporter; bilin identified on reporter (POZ53557 (pre-1 FDBR)): POZ53557 appears to carry out inefficient reduction of BV to PΦB
- absorption of purified holoprotein (POZ53552 (BBAG-1) [2]): POZ53545 with no FDBR (synthesizing BV; plasmid Spam-545xc
- absorption of purified holoprotein, acid denaturation, CD (CAP_1521 (BBAG-2)): Acid denaturation demonstrated that both possessed BV adducts rather than PΦB adducts
